In the supplement of paper PMC3974653:
Structures can show the parent of a compound that is named as a salt.

Test system: MTT (mouse pheochromocytoma)
Test: IC50 of cell viability (ATP content)
Details: (24 or 48 h)
In short: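 MTT mouse pheochromocytoma cells in white 1536-well plates were treated for 24 or 48 hrs with library compounds at 8 final concentrations from 0.5 nM to 46 µM. ATP content was measured with CellTiter-Glo luminescence, using positive-control wells as 100% and DMSO wells as 0%. IC50 came from a four-parameter logistic fit.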

CCCCCCCCOc1ccc(C(=O)c2ccccc2)c(O)c1 [OCTABENZONUM]
IC50 of cell viability: > 46 µM

c1ccc2c(c1)Nc1ccccc1S2 [Fenotiazina]
IC50 of cell viability: > 46 µM

CCCCNC(=N)NC(=N)N [BUFORMIN HYDROCHLORIDE]
IC50 of cell viability: > 46 µM

CC(C)NCC(O)COc1ccc(CCOCC2CC2)cc1 (stereo not given) [BETAXOLOL]
IC50 of cell viability: > 46 µM

CCN(CC)CCSC(=O)C(c1ccccc1)c1ccccc1 [Thiphenamil hydrochloride]
IC50 of cell viability: > 46 µM

COc1ccc(CCNC[C@H](O)COc2cccc(C)c2)cc1OC [Bevantolol]
IC50 of cell viability: > 46 µM

C[C@]12CC[C@@H]3[C@H](CC\C4=C\CCC[C@H]34)[C@@H]1CC[C@]2(O)C#C [Lynestrenol]
IC50 of cell viability: > 46 µM

O=C(CCCN1CCC2(CC1)C(=O)NCN2c1ccccc1)c1ccc(F)cc1 [SPIPERONE]
IC50 of cell viability: > 46 µM

NC(=O)c1ncn([C@@H]2O[C@H](CO)[C@@H](O)[C@H]2O)c1O [Mizoribine]
IC50 of cell viability: > 46 µM

COc1cc2nc(N3CCN(C(=O)c4ccco4)CC3)nc(N)c2cc1OC [Prazosin]
IC50 of cell viability: > 46 µM

O=C1OCCN1/N=C/c1ccc([N+](=O)[O-])o1 [Furazolidone]
IC50 of cell viability: > 46 µM

CN(C)[C@@H]\1[C@@H]2C[C@H]3\C(=C(\O)[C@@]2(O)C(=O)\C(=C1O)C(N)=O)C(=O)C4=C(C=CC=C4O)[C@@]3(C)O [Tetracycline hydrochloride]
IC50 of cell viability: > 46 µM

NCC1=C(CC(=O)N[C@H]2[C@@H]3SC\C(=C(/N3C2=O)C(O)=O)CSC4=NN=N[N]4CC(O)=O)C=CC=C1 [Ceforanide]
IC50 of cell viability: > 46 µM

CCc1cccc(CC)c1NC(=O)CN(CC(=O)O)CC(=O)O [Etifenin]
IC50 of cell viability: > 46 µM

O=C([O-])c1ccccc1Nc1cc(Cl)ccc1C(=O)[O-] [LOBENZARIT DISODIUM]
IC50 of cell viability: > 46 µM

COP(=S)(OC)Oc1ccc([S+](=O)([O-])N(C)C)cc1 [FAMPHUR]
IC50 of cell viability: > 46 µM

CCCC[S+](=O)([O-])N[C@@H](Cc1ccc(OCCCCC2CCNCC2)cc1)C(=O)O.Cl.O [Tirofiban]
IC50 of cell viability: > 46 µM

CC(N)C(=O)NCC(=O)NC1CSSCC(C(=O)O)NC(=O)C(CO)NC(=O)C(C(C)O)NC(=O)C(Cc2ccccc2)NC(=O)C(C(C)O)NC(=O)C(CCCCN)NC(=O)C(Cc2c[nH]c3ccccc23)NC(=O)C(Cc2ccccc2)NC(=O)C(Cc2ccccc2)NC(=O)C(CC(N)=O)NC(=O)C(CCCCN)NC1=O (stereo not given) [SOMATOSTATIN]
IC50 of cell viability: > 46 µM

CCCCCC(O)C1C(=O)OC(C)C(O)C=CC=CC=CC=CC=C(C)C(O)C(O)C(O)CC(O)CC(O)CC(O)CC(O)CC1O (stereo not given) [PENTAMYCIN]
IC50 of cell viability: > 46 µM

C[C@H]1C[C@H]2[C@@H]3CCC4=CC(=O)C=C[C@]4(C)[C@H]3C(=O)C[C@]2(C)[C@@]1(O)C(=O)CO [Meprednisone]
IC50 of cell viability: > 46 µM

CCCC(O)C(CC)CO (stereo not given) [2-ETHYL-1,3-HEXANEDIOL]
IC50 of cell viability: > 46 µM

N=C(NCCCCCCNC(=N)NC(=N)Nc1ccc(Cl)cc1)NC(=N)Nc1ccc(Cl)cc1 [Chlorhexidine]
IC50 of cell viability: > 46 µM

Cc1cc(C)c(NC(=O)CN(CC(=O)O)CC(=O)O)c(C)c1Br [MEBROFENIN]
IC50 of cell viability: > 46 µM

NC(=O)N1C2=C(C=CC=C2)\C=C/C3=C1C=CC=C3 [Carbamazepine]
IC50 of cell viability: > 46 µM

CCOc1cc(-c2nccc3cc(OC)c(OC)cc23)cc(OCC)c1OCC [OCTAVERINUM]
IC50 of cell viability: > 46 µM

NCCCC[C@H](NC(=O)[C@@H]1CCCN1C(=O)[C@@H]1CSSC[C@H](NC(=O)CNC(=O)CNC(=O)CN)C(=O)N[C@@H](Cc2ccc(O)cc2)C(=O)N[C@@H](Cc2ccccc2)C(=O)N[C@@H](CCC(N)=O)C(=O)N[C@@H](CC(N)=O)C(=O)N1)C(=O)NCC(N)=O [TERLIPRESSIN]
IC50 of cell viability: > 46 µM

CC(=O)O[C@H]1CC[C@]\2(C)[C@@H]3CC[C@@]4(C)[C@H](CCC4=O)[C@@H]3C\C=C2C1 [Dehydroisoandosterone 3-acetate]
IC50 of cell viability: > 46 µM

CCC(O)c1ccccc1 (stereo not given) [PHENYLPROPANOL]
IC50 of cell viability: > 46 µM

CN(C)CCCOC1C(C(O)CO)OC2OC(C)(C)O[C@@H]21.Cl (stereo not given in full) [AMIPRILOSE]
IC50 of cell viability: > 46 µM

Cc1ccc(/C=N/n2c(-c3ccccc3)csc2=S)cc1 [FEZATIONE]
IC50 of cell viability: > 46 µM

CCOC(=O)NNc1nncc2ccccc12 [Todralazine hydrochloride]
IC50 of cell viability: > 46 µM

O=C(O)CCCCCCCC(=O)O [Nonanedioic acid]
IC50 of cell viability: > 46 µM

CC(Cc1ccccc1)(NC(=O)CN)c1ccccc1 (stereo not given) [Remacemide hydrochloride]
IC50 of cell viability: > 46 µM

Cc1cccc(C)c1NC(=O)CN1CCCC1=O [Nefiracetam]
IC50 of cell viability: > 46 µM

CC(C)[C@H](N)C(=O)OCCOCn1cnc2c(O)nc(N)nc21 [Valacyclovir hydrochloride]
IC50 of cell viability: > 46 µM

C[C@H](C1=NC=CC=C1)C/2=C(CCN(C)C)/CC3=CC=CC=C23 [(S)-(+)-Dimethindene maleate]
IC50 of cell viability: > 46 µM

CC(CN1c2ccccc2Sc2ccc([S+](=O)([O-])N(C)C)cc21)N(C)C (stereo not given) [Dimethothiazine]
IC50 of cell viability: > 46 µM

CNC(=O)C(N)CSC(C)C1=C(C)C2=Cc3c(C(C)SCC(N)C(=O)NC)c(C)c4[n]3[Fe]35[n]6c(c(C)c(CCC(=O)O)c6=CC6=[N+]3C(=C4)C(C)=C6CCC(=O)O)=CC1=[N+]25 (stereo not given) [CYTOCHROME C]
IC50 of cell viability: > 46 µM

C=C1NC(=O)c2cc(CN(C)c3ccc(C(=O)N[C@@H](CCC(=O)O)C(=O)O)s3)ccc2N1 [RALTITREXED]
IC50 of cell viability: > 46 µM

CC1O[C@@H](CC(O)[C@H]1O[C@H]2CC(O)[C@@H](O[C@H]3CC(OC(C)=O)[C@H](O[C@H]4OC(CO)C(O)C(O)C4O)[C@@H](C)O3)C(C)O2)OC5CC[C@]6(C)C(CCC7C6CC(O)[C@@]8(C)C(CC[C@@]78O)\C9=C\C(=O)OC9)C5 (stereo not given in full) [LANATOSIDE C]
IC50 of cell viability: > 46 µM

NC(=O)CN1CC(O)CC1=O (stereo not given) [Oxiracetam]
IC50 of cell viability: > 46 µM

CC(C)c1ncc([N+](=O)[O-])n1C [IPRONIDAZOLE]
IC50 of cell viability: > 46 µM

CCOC(=O)\C1=C\[C@@]2(CC)CCCN3CCC4=C([C@@H]23)[N]1C5=C4C=CC=C5 [VINPOCETINE]
IC50 of cell viability: > 46 µM

CC(=O)O[C@H]1CC[C@H]2[C@@H]3CCC4=CC(=O)CCC4=C3C=C[C@]12C [TRENBOLONE ACETATE]
IC50 of cell viability: > 46 µM

COC1=C(OC)C(=O)C(C/C=C(\C)CC/C=C(\C)CC/C=C(\C)CC/C=C(/C)CC/C=C(\C)CC/C=C(\C)CC/C=C(\C)CC/C=C(\C)CC/C=C(\C)CCC=C(C)C)=C(C)C1=O [Coenzyme Q10]
IC50 of cell viability: > 46 µM

CCOCCn1c(N2CCCN(C)CC2)nc2ccccc21 [EMEDASTINE DIFUMARATE]
IC50 of cell viability: > 46 µM

NCCCCC(NC(=O)C1CCCN1C(=O)C1CSSCC(N)C(=O)NC(Cc2ccc(O)cc2)C(=O)NC(Cc2ccccc2)C(=O)NC(CCC(N)=O)C(=O)NC(CC(N)=O)C(=O)N1)C(=O)NCC(N)=O (stereo not given) [[Lys8]-Vasopressin]
IC50 of cell viability: > 46 µM

O=C(CCN1CCN2CCCC2C1)N1c2ccccc2Sc2ccc(Cl)cc21 (stereo not given) [Azaclorzina]
IC50 of cell viability: > 46 µM

O.O.[Na+].[Na+].[O]=[Cr](=[O])([O-])[O][Cr](=[O])(=[O])[O-] [Sodium Dichromate Dihydrate]
IC50 of cell viability: > 46 µM

CC(=O)NC(Cc1ccccc1)C(=O)O (stereo not given) [AFALANINUM]
IC50 of cell viability: > 46 µM

CC(=O)[C@@]1(O)CC[C@@H]2[C@@H]3CCC/4=C/C(=O)CC[C@]4(C)[C@]3(F)[C@@H](O)C[C@]12C [Flugestone]
IC50 of cell viability: > 46 µM

NC(=O)NNc1ccccc1 [PHENICARBAZIDUM]
IC50 of cell viability: > 46 µM

CNCCc1ccccn1.C[S+](=O)([O-])O [Betahistine mesylate]
IC50 of cell viability: > 46 µM

OCC1OC(OC2C(CO)OC(OC3C(CO)OC(O)C(O)C3O)C(O)C2O)C(O)C(O)C1O (stereo not given) [Maltotriose]
IC50 of cell viability: > 46 µM

CC(C)NCC(O)COc1ccc(COCCOC(C)C)cc1 (stereo not given) [Bisoprolol hemifumarate salt]
IC50 of cell viability: > 46 µM

OCC1(O)OC[C@@H](O)[C@H](O)[C@@H]1O (stereo partly drawn) [D-(-)-TAGATOSE]
IC50 of cell viability: > 46 µM

CN1CCN(C(=O)C2CCCCC2)CC1 [Pexantel]
IC50 of cell viability: > 46 µM

CCOc1cc(OCC)c(C(=O)CCC(=O)O)cc1OCC [TREPIBUTONE]
IC50 of cell viability: > 46 µM

Brc1ccccc1-c1ccccc1 [2-Bromobiphenyl]
IC50 of cell viability: > 46 µM

C1CN(P2(N3CC3)=NP(N3CC3)(N3CC3)=NP(N3CC3)(N3CC3)=N2)CCO1 (stereo not given) [Fotretamine]
IC50 of cell viability: > 46 µM
